Assay results from ChEMBL document CHEMBL1157403, “Lanostane-type triterpenoids from the roots of Kadsura coccinea” (2008).

Test system: HL-60
Assay: Antiproliferative activity against human HL60 cells after 3 days by trypan blue staining
Assay type: functional
Settings: HL-60, 72 h

SMILES	GI50 [µM]
O=c1[nH]cc(F)c(=O)[nH]1 [FLUOROURACIL]	3.8
C=C(C)[C@@H]1CC=C2[C@H](CC[C@]3(C)[C@@H]([C@H](C)CC(=O)CC(C)C)CC[C@@]23C)[C@@]1(C)CCC(=O)O [SECO-COCCINIC ACID A]	6.8
C=C(C)[C@@H]1CC=C2[C@H](CC[C@]3(C)[C@@H]([C@H](C)CC(=O)C=C(C)C)CC[C@@]23C)[C@@]1(C)CCC(=O)O [SECO-COCCINIC ACID B]	13.3
C=C(C)[C@@H]1CC=C2[C@H](CC[C@]3(C)[C@@H]([C@H](C)CC(=O)CC(C)(C)O)CC[C@@]23C)[C@@]1(C)CCC(=O)O [SECO-COCCINIC ACID C]	12.1
C=C(C)[C@H](O)CC[C@@H](C)[C@H]1CC[C@@]2(C)C3=CC[C@@H](C(=C)C)[C@](C)(CCC(=O)O)[C@@H]3CC[C@]12C [SECO-COCCINIC ACID E]	42.1
